Assay [1] deals with A2780 cells. Nature of the assay: In-vitro cell proliferation assay (SRB), A2780 cells. It counts as cell-based. The note with it: Homo sapiens, A2780, 72 h, A2780 cells, 72 hours, read-out: A2780 IC50. In short, it runs like this: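 Growth inhibition was derived from background-corrected SRB absorbance (570 nm), measured on cells fixed in 6% TCA after three days of compound treatment under 5% CO2 at 37° C.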

Assay [2] deals with T1, NAMPT (Homo sapiens, UniProt P43490).
T1 construct: His tag; host or cells: E. coli
Nature of the assay: Biochemical inhibition assay: NAMPT enzymatic reaction, NMN quantified by mass spectrometry. In short, it runs like this:
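Inhibition of E. coli-expressed His-tagged human NAMPT, measured as NMN formation by mass spectrometry after a 30 min room-temperature reaction containing 1 μM NAM, 100 μM PRPP and 2.5 mM ATP.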

Where [3] appears, read: NAMPT enzymatic assay, read-out: Biochem IC50.
Where [4] appears, read: NAMPT enzymatic reaction, read-out: Biochem IC50.

Each structure is given as a SMILES string. Like-named read-outs stand apart in the source and are kept apart here.

T1 sequence (P43490 whole entry): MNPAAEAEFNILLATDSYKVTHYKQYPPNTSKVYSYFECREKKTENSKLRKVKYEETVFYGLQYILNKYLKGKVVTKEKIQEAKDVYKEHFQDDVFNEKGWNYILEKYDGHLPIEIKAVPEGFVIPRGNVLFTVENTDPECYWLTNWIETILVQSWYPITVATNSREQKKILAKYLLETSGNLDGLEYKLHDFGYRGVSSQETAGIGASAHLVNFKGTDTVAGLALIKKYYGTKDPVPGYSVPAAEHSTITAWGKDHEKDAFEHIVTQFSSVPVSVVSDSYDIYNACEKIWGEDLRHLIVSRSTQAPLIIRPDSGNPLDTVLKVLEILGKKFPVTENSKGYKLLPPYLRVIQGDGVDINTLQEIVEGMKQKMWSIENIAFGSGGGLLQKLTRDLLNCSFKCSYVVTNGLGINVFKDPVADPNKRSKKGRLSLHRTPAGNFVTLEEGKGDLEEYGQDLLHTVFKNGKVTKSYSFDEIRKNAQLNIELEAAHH

The term IC50 denotes the concentration that inhibits the measured activity by half. On to `O=C(NCc1ccc(S(=O)(=O)c2ccc(-n3cccn3)cc2F)cc1)c1cnc2nccn2c1`, for which the figures for the IC50 in assay [1] (SRB) and in assay [2] (setting [3]) were 19 nM and 0.0022 µM, respectively.

Turning to `O=C(NCc1ccc(S(=O)(=O)c2ccc(C(F)(F)F)cc2Cl)cc1)c1cnc2nccn2c1`, the figures for the half-maximal inhibitory concentration (IC50) in assay [1] (SRB) and in assay [2] (setting [3]) were 64.4 nM and 0.0184 µM, respectively.

Regarding `CCCCOc1cc(F)ccc1S(=O)(=O)c1ccc(CNC(=O)c2cc3ccncc3s2)cc1`, the IC50 in assay [1] (SRB) came to 6.3 nM; in assay [2] (setting [4]), 0.007 µM.

With `COc1cccc(S(=O)(=O)c2ccc(CNC(=O)c3cc4ccncc4s3)cc2)c1` [N-({4-[(3-methoxybenzene)sulfonyl]phenyl}methyl)thieno[2,3-c]pyridine-2-carboxamide], the results for the half-maximal inhibitory concentration (IC50) in assay [1] (SRB assay) and in assay [2] (setting [4]) were 2.6 nM and 0.005 µM, respectively.

Take `Cn1ncc2cccc(S(=O)(=O)c3ccc(CNC(=O)c4cnc5[nH]ncc5c4)cc3)c21` [N-{[4-(1-methyl-1H-indazole-7-sulfonyl)phenyl]methyl}-1H-pyrazolo[3,4-b]pyridine-5-carboxamide]: the figures for the concentration for half-maximal inhibition (IC50) in assay [1] (SRB) and in assay [2] (setting [3]) were 86.9 nM and 0.0918 µM, respectively.

Take `Cc1cc(C)c(S(=O)(=O)c2ccc(CNC(=O)c3cnc4[nH]ncc4c3)cc2)c(C)c1` [N-({4-[(2,4,6-trimethylbenzene)sulfonyl]phenyl}methyl)-1H-pyrazolo[3,4-b]pyridine-5-carboxamide]: the IC50 is 100 to 1000 nM in assay [1] (SRB) and 0.136 µM in assay [2] (setting [4]).

Consider `CCCOc1ccc(S(=O)(=O)c2ccc(CNC(=O)c3cnc4nccn4c3)cc2)c(C)c1`, for which the IC50 stood at 51.8 nM in assay [1] (SRB) and 0.01 µM in assay [2] (setting [4]).

In the case of `O=C(NCc1ccc(S(=O)(=O)c2cccc(OCCN3CCOCC3)c2)cc1)c1cnc2nccn2c1`, the IC50 in assay [1] (SRB) is 24.7 nM; in assay [2] (setting [3]) it was 0.0031 µM.

As for `COc1cccc(C)c1NS(=O)(=O)c1ccc(CNC(=O)c2cc3cnccc3[nH]2)cc1` [N-({4-[(2-methoxy-6-methylphenyl)sulfamoyl]phenyl}methyl)-1H-pyrrolo[3,2-c]pyridine-2-carboxamide], the IC50 in assay [1] (SRB assay) came out at 12400 nM; in assay [2] (setting [4]) it was 0.006 µM.

Regarding `COc1ccc(C)cc1S(=O)(=O)c1ccc(CNC(=O)c2cnc3nccn3c2)cc1`, the IC50 worked out at 7.2 nM in assay [1] (SRB) and 0.0039 µM in assay [2] (setting [4]).

As for `Cc1cccc(S(=O)(=O)c2ccc(CNC(=O)c3cc4cnccc4[nH]3)cc2)c1C` [N-({4-[(2,3-dimethylbenzene)sulfonyl]phenyl}methyl)-1H-pyrrolo[3,2-c]pyridine-2-carboxamide], the figures for the IC50 in assay [1] (SRB) and in assay [2] (setting [3]) were 7 nM and 0.014 µM, respectively.

Turning to `Cc1cc(Cl)cc(S(=O)(=O)c2ccc(CNC(=O)c3cnc4nccn4c3)cc2)c1`, the IC50 came out at 2.3 nM in assay [1] (SRB) and 0.0048 µM in assay [2] (setting [4]).

With `CCN(C)c1ncc(S(=O)(=O)c2ccc(CNC(=O)c3cc4ccncc4o3)cc2)s1` [N-[(4-{2-[ethyl(methyl)amino]-1,3-thiazole-5-sulfonyl}phenyl)methyl]furo[2,3-c]pyridine-2-carboxamide], the 50% inhibitory concentration (IC50) stood at 0.9 nM in assay [1] (SRB) and 0.0048 µM in assay [2] (setting [3]).

Take `O=C(NCc1ccc(S(=O)(=O)c2cncc(N3CCCC3)c2)cc1)c1ccc2ncsc2c1` [N-({4-[5-(pyrrolidin-1-yl)pyridine-3-sulfonyl]phenyl}methyl)-1,3-benzothiazole-6-carboxamide]: the IC50 in assay [1] (SRB) was 100 to 1000 nM; in assay [2] (setting [3]), 0.0092 µM.

Take `O=C(NCc1ccc(S(=O)(=O)c2cccc3cccnc23)cc1)c1cnc2nccn2c1` [N-{[4-(quinoline-8-sulfonyl)phenyl]methyl}imidazo[1,2-a]pyrimidine-6-carboxamide]: the figures for the IC50 in assay [1] (SRB) and in assay [2] (setting [3]) were 27.7 nM and 0.003 µM, respectively.

With `O=C(NCc1ccc(S(=O)(=O)c2cccc(N3CCOCC3)c2)cc1)c1cnc2[nH]ncc2c1`, the results for the IC50 in assay [1] (SRB) and in assay [2] (setting [3]) were 13 nM and 0.0167 µM, respectively.

In the case of `Cc1c(F)cccc1S(=O)(=O)c1ccc(CNC(=O)c2cc3ccncc3o2)cc1`, the IC50 in assay [1] (SRB) turned out to be 30.7 nM; in assay [2] (setting [4]), 0.0132 µM.

For the compound `COc1cc(C)cc(S(=O)(=O)c2ccc(CNC(=O)c3cc4ccncc4o3)cc2)c1OC`, the IC50 amounted to 7 nM in assay [1] (SRB) and 0.0152 µM in assay [2] (setting [4]).

For the compound `O=C(NCCc1ccc(S(=O)(=O)c2ccccc2)cc1)c1cc2cnccc2[nH]1` [N-{2-[4-(benzenesulfonyl)phenyl]ethyl}-1H-pyrrolo[3,2-c]pyridine-2-carboxamide], the IC50 in assay [1] (SRB assay) was found to be 9100 nM; in assay [2] (setting [4]) it was 0.41 µM.

Regarding `O=C(NCc1ccc(S(=O)(=O)c2ccc(F)c(OCC(F)(F)F)c2)cc1)c1cnc2nccn2c1`, the figures for the IC50 in assay [1] (SRB) and in assay [2] (setting [3]) were 6.5 nM and 0.0024 µM, respectively.

Consider `CCCOc1ccc(S(=O)(=O)c2ccc(CNC(=O)c3cnc4[nH]ncc4c3)cc2)cc1Cl` [N-({4-[(3-chloro-4-propoxybenzene)sulfonyl]phenyl}methyl)-1H-pyrazolo[3,4-b]pyridine-5-carboxamide], for which the 50% inhibitory concentration (IC50) in assay [1] (SRB) was found to be 9.58 nM; in assay [2] (setting [4]), 0.0079 µM.

In the case of `O=C(NCc1ccc(S(=O)(=O)c2cc(F)cc(N3CCOCC3)c2)cc1)c1cc2cnccc2[nH]1`, the 50% inhibitory concentration (IC50) was determined as 0.8 nM in assay [1] (SRB) and 0.004 µM in assay [2] (setting [3]).

In the case of `Cc1ccc(S(=O)(=O)c2ccc(CNC(=O)c3ccc4nccn4c3)cc2)cc1` [N-({4-[(4-methylbenzene)sulfonyl]phenyl}methyl)imidazo[1,2-a]pyridine-6-carboxamide], the half-maximal inhibitory concentration (IC50) in assay [1] (SRB) was found to be 12 nM; in assay [2] (setting [4]) it was 0.0176 µM.

Turning to `CCCOc1ccc(S(=O)(=O)c2ccc(CNC(=O)c3ccc4nccn4c3)cc2)cc1`, the IC50 turned out to be 1.9 nM in assay [1] (SRB) and 0.0061 µM in assay [2] (setting [4]).

For the compound `COc1cc(S(=O)(=O)c2ccc(CNC(=O)c3cc4cnccc4[nH]3)cc2)ccc1C`, the IC50 in assay [1] (SRB) amounted to 3 nM; in assay [2] (setting [4]), 0.0079 µM.

For the compound `Cn1ncc2ccc(S(=O)(=O)c3ccc(CNC(=O)c4cc5ccncc5o4)cc3)cc21` [N-{[4-(1-methyl-1H-indazole-6-sulfonyl)phenyl]methyl}furo[2,3-c]pyridine-2-carboxamide], the concentration for half-maximal inhibition (IC50) is 3.4 nM in assay [1] (SRB) and 0.0047 µM in assay [2] (setting [3]).

As for `Cc1cnc(S(=O)(=O)c2ccc(CNC(=O)c3cc4ccncc4o3)cc2)n1C` [N-{[4-(1,5-dimethyl-1H-imidazole-2-sulfonyl)phenyl]methyl}furo[2,3-c]pyridine-2-carboxamide], the half-maximal inhibitory concentration (IC50) in assay [1] (SRB) came to 65.9 nM; in assay [2] (setting [3]), 0.0574 µM.

In the case of `O=C(NCc1ccc(S(=O)(=O)c2ccc(N3CCOCC3)nc2)cc1)c1cc2ccncc2s1` [N-({4-[6-(morpholin-4-yl)pyridine-3-sulfonyl]phenyl}methyl)thieno[2,3-c]pyridine-2-carboxamide], the IC50 in assay [1] (SRB) came to 0.7 nM; in assay [2] (Biochem IC50 uM), 0.0041 µM.

Turning to `CN1CCN(c2ccc(S(=O)(=O)c3ccc(CNC(=O)c4cc5ccncc5s4)cc3)cc2)CC1`, the IC50 in assay [1] (SRB) amounted to 0.3 nM; in assay [2] (setting [3]), 0.001 µM.

As for `O=C(NCc1ccc(S(=O)(=O)N2CCCCC2)cc1)c1ccc2nccn2c1` [N-{[4-(piperidine-1-sulfonyl)phenyl]methyl}imidazo[1,2-a]pyridine-6-carboxamide], the figures for the 50% inhibitory concentration (IC50) in assay [1] (SRB assay) and in assay [2] (setting [4]) were 1160 nM and 0.018 µM, respectively.

Consider `O=C(NCc1ccc(S(=O)(=O)c2cnn(-c3ccc(F)cc3)c2)cc1)c1cc2cnccc2[nH]1` [N-({4-[1-(4-fluorophenyl)-1H-pyrazole-4-sulfonyl]phenyl}methyl)-1H-pyrrolo[3,2-c]pyridine-2-carboxamide], for which the values for the concentration for half-maximal inhibition (IC50) in assay [1] (SRB) and in assay [2] (setting [3]) were 6.6 nM and 0.0184 µM, respectively.

In the case of `O=C(NCc1ccc(S(=O)(=O)c2cc(Cl)cc(Cl)c2)cc1)c1cc2cnccc2[nH]1`, the IC50 in assay [1] (SRB) came to 0.4 nM; in assay [2] (setting [4]), 0.001 µM.
